What follows are compounds tested against T1, Nav1.7 (or SCN9A) channel; HEK cells stably transfected with hSCN9A (Homo sapiens, UniProt Q15858) (assay: Nav1.7 block, PatchXpress 7000 automated whole-cell voltage clamp, estimated IC50 (EIC50)). Conditions: PatchXpress platform; hSCN9A HEK cells held at V1/2 of inactivation; estimated IC50.
T1 construct: expressed in transfected cells
T1 sequence (Q15858 whole entry): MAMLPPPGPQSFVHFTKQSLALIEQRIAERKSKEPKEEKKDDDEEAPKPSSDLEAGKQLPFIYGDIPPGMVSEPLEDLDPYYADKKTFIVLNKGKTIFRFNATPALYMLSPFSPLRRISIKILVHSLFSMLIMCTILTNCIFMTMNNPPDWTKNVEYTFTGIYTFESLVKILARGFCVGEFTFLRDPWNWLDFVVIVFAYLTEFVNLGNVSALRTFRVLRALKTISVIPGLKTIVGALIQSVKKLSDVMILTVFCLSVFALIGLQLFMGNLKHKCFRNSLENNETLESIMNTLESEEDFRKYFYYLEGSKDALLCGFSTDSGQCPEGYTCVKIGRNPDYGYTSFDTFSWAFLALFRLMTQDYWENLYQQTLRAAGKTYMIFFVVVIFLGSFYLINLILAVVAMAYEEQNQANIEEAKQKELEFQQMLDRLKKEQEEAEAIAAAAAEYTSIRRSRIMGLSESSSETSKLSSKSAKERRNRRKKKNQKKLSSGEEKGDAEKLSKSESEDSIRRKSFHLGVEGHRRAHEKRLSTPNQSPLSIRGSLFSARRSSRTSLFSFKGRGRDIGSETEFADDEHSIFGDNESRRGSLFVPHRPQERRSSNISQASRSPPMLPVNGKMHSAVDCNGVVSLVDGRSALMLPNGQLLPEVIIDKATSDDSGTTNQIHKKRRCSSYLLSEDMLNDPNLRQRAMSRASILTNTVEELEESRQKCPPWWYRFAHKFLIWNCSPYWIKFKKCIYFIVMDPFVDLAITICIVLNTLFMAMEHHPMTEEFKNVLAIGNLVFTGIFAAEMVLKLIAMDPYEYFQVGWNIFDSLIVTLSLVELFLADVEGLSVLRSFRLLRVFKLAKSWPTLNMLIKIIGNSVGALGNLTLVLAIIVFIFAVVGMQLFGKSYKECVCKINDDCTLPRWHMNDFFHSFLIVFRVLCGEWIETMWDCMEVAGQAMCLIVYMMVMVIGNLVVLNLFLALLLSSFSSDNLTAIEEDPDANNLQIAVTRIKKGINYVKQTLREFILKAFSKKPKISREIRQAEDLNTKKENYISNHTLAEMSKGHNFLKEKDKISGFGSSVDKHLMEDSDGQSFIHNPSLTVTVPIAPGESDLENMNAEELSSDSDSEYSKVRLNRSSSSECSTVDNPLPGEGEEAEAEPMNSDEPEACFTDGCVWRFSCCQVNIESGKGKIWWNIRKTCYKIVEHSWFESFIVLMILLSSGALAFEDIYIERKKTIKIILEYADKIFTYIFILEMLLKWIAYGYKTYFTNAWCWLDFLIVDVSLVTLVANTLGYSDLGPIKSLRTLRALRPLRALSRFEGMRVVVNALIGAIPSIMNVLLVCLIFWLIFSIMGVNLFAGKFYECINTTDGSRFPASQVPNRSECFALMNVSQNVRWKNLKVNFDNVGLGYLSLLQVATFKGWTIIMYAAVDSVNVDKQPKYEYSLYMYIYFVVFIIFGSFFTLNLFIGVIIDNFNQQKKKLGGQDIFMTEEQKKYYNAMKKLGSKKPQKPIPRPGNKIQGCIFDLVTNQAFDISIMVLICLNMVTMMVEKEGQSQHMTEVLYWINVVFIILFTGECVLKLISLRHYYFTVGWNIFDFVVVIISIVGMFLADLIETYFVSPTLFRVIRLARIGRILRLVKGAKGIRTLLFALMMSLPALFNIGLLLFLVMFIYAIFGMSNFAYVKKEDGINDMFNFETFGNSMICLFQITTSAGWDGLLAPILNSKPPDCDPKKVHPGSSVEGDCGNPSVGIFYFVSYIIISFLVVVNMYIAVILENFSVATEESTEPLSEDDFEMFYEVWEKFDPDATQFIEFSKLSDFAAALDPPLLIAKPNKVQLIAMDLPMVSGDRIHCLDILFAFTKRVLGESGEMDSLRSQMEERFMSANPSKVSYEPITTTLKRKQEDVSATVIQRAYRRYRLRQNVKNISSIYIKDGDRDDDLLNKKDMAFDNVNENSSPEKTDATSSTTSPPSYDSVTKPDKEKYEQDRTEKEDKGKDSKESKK
Assay type: cell-based
In the case of Cc1snnc1NS(=O)(=O)c1ccc(Oc2ccccc2-c2ccccc2)c(C#N)c1 [Example 112, 4-(biphenyl-2-yloxy)-3-cyano-N-(5-methyl-1,2,3-thiadiazol-4-yl)benzenesulfonamide], the IC50 is reported as 33700 nM. Cc1ccc(Oc2ccc(S(=O)(=O)Nc3nccs3)cc2F)c(-c2[nH]ncc2C)c1 [Example 224, 3-fluoro-4-(4-methyl-2-(4-methyl-1H-pyrazol-5-yl)phenoxy)-N-(thiazol-2-yl)benzenesulfonamide] showed an IC50 of 770 nM. Compound Cc1cc(S(=O)(=O)Nc2ncns2)ccc1Oc1ccn(Cc2ccc(Cl)cc2)n1 [Example 257, 4-{[1-(4-chlorobenzyl)-1H-pyrazol-3-yl]oxy}-3-methyl-N-1,2,4-thiadiazol-5-ylbenzenesulfonamide] has an IC50 of 2200 nM. N#Cc1cc(S(=O)(=O)Nc2ncns2)ccc1Oc1ccc(CC2CC2)cc1 [Example 60, 3-cyano-4-[4-(cyclopropylmethyl)phenoxy]-N-1,2,4-thiadiazol-5-ylbenzenesulfonamide] gave an IC50 of 2790 nM. For CC(C)(C)n1nccc1-c1c(F)cccc1Oc1ccc(S(=O)(=O)Nc2ncns2)cc1C#N [Example 83, 4-[2-(1-tert-butyl-1H-pyrazol-5-yl)-3-fluorophenoxy]-3-cyano-N-1,2,4-thiadiazol-5-ylbenzenesulfonamide], the IC50 was 2450 nM. In the case of O=S(=O)(Nc1cscn1)c1ccc(Oc2cc(C(F)(F)F)nn2-c2ccccc2)c(F)c1 [Example 274, 3-fluoro-4-(2-phenyl-5-trifluoromethyl-2H-pyrazol-3-yloxy)-N-thiazol-4-yl-benzenesulfonamide], the IC50 is reported as >10000 nM. For Cn1nccc1-c1cc(Cl)ccc1Oc1ccc(S(=O)(=O)Nc2ncc(F)s2)cc1F [Example 275, 4-[4-chloro-2-(2-methyl-2H-pyrazol-3-yl)-phenoxy]-3-fluoro-N-(5-fluoro-thiazol-2-yl)-benzenesulfonamide], the IC50 was 70 nM. Cc1ccc(-c2nc(N(C)C)ncc2Oc2ccc(S(=O)(=O)Nc3ncns3)cc2C#N)cc1 [Example 9, 3-cyano-4-{[2-(dimethylamino)-4-(4-methylphenyl)pyrimidin-5-yl]oxy}-N-1,2,4-thiadiazol-5-ylbenzenesulfonamide] showed an IC50 of 3500 nM. N#Cc1cc(S(=O)(=O)Nc2ncns2)ccc1Oc1cnc(N)nc1-c1ccccc1 [Example 23, 4-[(2-amino-4-phenylpyrimidin-5-yl)oxy]-3-cyano-N-1,2,4-thiadiazol-5-ylbenzenesulfonamide] showed an IC50 of 2030 nM. Work on Cn1ccc(-c2ccc(Oc3ccc(S(=O)(=O)Nc4nccs4)cc3C#N)c(Cl)c2)n1 [Example 178, 4-(2-chloro-4-(1-methyl-1H-pyrazol-3-yl)phenoxy)-3-cyano-N-(thiazol-2-yl)benzenesulfonamide] yielded an IC50 of 3080 nM. With Cc1cn(Cc2ccccc2)nc1Oc1ccc(S(=O)(=O)Nc2ncns2)cc1C#N [Example 66, 4-[(1-benzyl-4-methyl-1H-pyrazol-3-yl)oxy]-3-cyano-N-1,2,4-thiadiazol-5-ylbenzenesulfonamide] the IC50 was 2660 nM.

Same assay, conditions: estimated IC50; hSCN9A HEK cells, PatchXpress platform; Examples 283-814
CN1CC(n2nccc2-c2cc(Cl)ccc2Oc2ccc(S(=O)(=O)Nc3cscn3)cc2C#N)C1 [Example 729, 4-{4-chloro-2-[1-(1-methylazetidin-3-yl)-1H-pyrazol-5-yl]phenoxy}-3-cyano-N-1,3-thiazol-4-ylbenzenesulfonamide] showed an IC50 of 22 nM. In the case of O=S(=O)(Nc1ncns1)c1cc(Cl)c(Oc2ccc(Cl)cc2C2CCNCC2)cc1F [Example 796, 5-chloro-4-(4-chloro-2-piperidin-4-ylphenoxy)-2-fluoro-N-1,2,4-thiadiazol-5-ylbenzenesulfonamide], the IC50 is reported as 2.1 nM. Cn1cnnc1-c1cc(Cl)ccc1Oc1ccc(S(=O)(=O)Nc2nccs2)cc1F [Example 306, 4-[4-chloro-2-(4-methyl-4H-1,2,4-triazol-3-yl)phenoxy]-3-fluoro-N-1,3-thiazol-2-ylbenzenesulfonamide] was tested, and the IC50 was >1000 nM. N#Cc1cc(S(=O)(=O)Nc2nccs2)ccc1Oc1ccc(-c2nccc(C(F)(F)F)n2)cc1 [Example 454, 3-cyano-N-1,3-thiazol-2-yl-4-{4-[4-(trifluoromethyl)pyrimidin-2-yl]phenoxy}benzenesulfonamide] was tested, and the IC50 was >1000 nM. For N#Cc1cc(S(=O)(=O)Nc2nccs2)ccc1Oc1ccc(-n2cc(C(N)=O)cn2)cc1 [Example 379, 1-(4-{2-cyano-4-[(1,3-thiazol-2-ylamino)sulfonyl]phenoxy}phenyl)-1H-pyrazole-4-carboxamide], the IC50 was >1000 nM. Cn1nccc1-c1cc(Br)ccc1Oc1ccc(S(=O)(=O)Nc2nccs2)cc1C#N [Example 705, 4-[4-bromo-2-(1-methyl-1H-pyrazol-5-yl)phenoxy]-3-cyano-N-1,3-thiazol-2-ylbenzenesulfonamide] showed an IC50 of 15 nM. N#Cc1cc(S(=O)(=O)Nc2nccs2)ccc1Oc1ccccc1-c1cn[nH]c1N [Example 707, 4-[2-(5-amino-1H-pyrazol-4-yl)phenoxy]-3-cyano-N-1,3-thiazol-2-ylbenzenesulfonamide] gave an IC50 of 120 nM. Cn1nccc1-c1cc(F)c(F)cc1Oc1ccc(S(=O)(=O)Nc2nccs2)cc1C#N [Example 526, 3-cyano-4-[4,5-difluoro-2-(1-methyl-1H-pyrazol-5-yl)phenoxy]-N-1,3-thiazol-2-ylbenzenesulfonamide] gave an IC50 of 160 nM. N#Cc1cc(S(=O)(=O)Nc2nccs2)ccc1Oc1ccc(Cl)cc1-c1cnccn1 [Example 652, 4-(4-chloro-2-pyrazin-2-ylphenoxy)-3-cyano-N-1,3-thiazol-2-ylbenzenesulfonamide] was tested, and the IC50 was 900 nM. Compound N#Cc1cc(S(=O)(=O)Nc2ncc(F)s2)ccc1Oc1ccc(I)cc1-c1ccn[nH]1 [Example 713, 3-Cyano-N-(5-fluoro-1,3-thiazol-2-yl)-4-[4-iodo-2-(1H-pyrazol-5-yl)phenoxy]benzenesulfonamide] has an IC50 of 2.4 nM. Cn1nc(C(F)(F)F)cc1-c1ccc(Oc2cc(F)c(S(=O)(=O)Nc3nccs3)cc2F)cc1 [Example 678, 2,5-difluoro-4-{4-[1-methyl-3-(trifluoromethyl)-1H-pyrazol-5-yl]phenoxy}-N-1,3-thiazol-2-ylbenzenesulfonamide] showed an IC50 of 260 nM. With N#Cc1cc(S(=O)(=O)Nc2cscn2)ccc1Oc1ccc(Cl)cc1-c1cccc(N)n1 [Example 766, 4-[2-(6-aminopyridin-2-yl)-4-chlorophenoxy]-3-cyano-N-1,3-thiazol-4-ylbenzenesulfonamide] the IC50 was 500 nM. For Cn1nc(C(F)(F)F)cc1-c1ccc(Oc2ccc(S(=O)(=O)Nc3nccs3)cc2C#N)c(C#N)c1 [Example 292, 3-cyano-4-{2-cyano-4-[1-methyl-3-(trifluoromethyl)-1H-pyrazol-5-yl]phenoxy}-N-1,3-thiazol-2-ylbenzenesulfonamide], the IC50 was 44 nM. With N#Cc1cc(S(=O)(=O)Nc2nccs2)ccc1Oc1ccc(-n2cc(Cl)cn2)c(C(=O)O)c1 [Example 497, 2-(4-chloro-1H-pyrazol-1-yl)-5-{2-cyano-4-[(1,3-thiazol-2-ylamino)sulfonyl]phenoxy}benzoic acid] the IC50 was >1000 nM. In the case of Cn1nccc1-c1cc(F)ccc1Oc1ccc(S(=O)(=O)Nc2ncc(F)s2)cc1C#N [Example 386, 3-cyano-4-[4-fluoro-2-(1-methyl-1H-pyrazol-5-yl)phenoxy]-N-(5-fluoro-1,3-thiazol-2-yl)benzenesulfonamide], the IC50 is reported as 91 nM. For CCn1nc(C(F)(F)F)cc1-c1ccc(Oc2ccc(S(=O)(=O)Nc3ncc(F)s3)cc2C#N)c(F)c1 [Example 537, 3-cyano-4-{4-[1-ethyl-3-(trifluoromethyl)-1H-pyrazol-5-yl]-2-fluorophenoxy}-N-(5-fluoro-1,3-thiazol-2-yl)benzenesulfonamide], the IC50 was 25 nM. N#Cc1cc(S(=O)(=O)Nc2ncns2)cc(F)c1Oc1ccc(F)cc1-c1ccn[nH]1 [Example 459, 3-cyano-5-fluoro-4-[4-fluoro-2-(1H-pyrazol-5-yl)phenoxy]-N-1,2,4-thiadiazol-5-ylbenzenesulfonamide] showed an IC50 of 840 nM. For N#Cc1cc(S(=O)(=O)Nc2nccs2)ccc1Oc1ccc(-c2cc(C3CC3)n[nH]2)c(Cl)c1 [Example 373, 4-[3-chloro-4-(3-cyclopropyl-1H-pyrazol-5-yl)phenoxy]-3-cyano-N-1,3-thiazol-2-ylbenzenesulfonamide], the IC50 was >1000 nM. With O=S(=O)(Nc1nncs1)c1cc(Cl)c(Oc2ccc(Cl)cc2C2CCNCC2)cc1F [Example 765, 5-chloro-4-(4-chloro-2-piperidin-4-ylphenoxy)-2-fluoro-N-1,3,4-thiadiazol-2-ylbenzenesulfonamide] the IC50 was 110 nM. For N#Cc1cc(S(=O)(=O)Nc2nccs2)ccc1Oc1cnn(Cc2ccc(Cl)cc2)c1 [Example 331, 4-{[1-(4-chlorobenzyl)-1H-pyrazol-4-yl]oxy}-3-cyano-N-1,3-thiazol-2-ylbenzenesulfonamide], the IC50 was 2000 nM.

Same assay, conditions: estimated IC50; hSCN9A HEK cells, PatchXpress platform; Examples 815-1040
With N#Cc1cc(S(=O)(=O)Nc2nncs2)ccc1Oc1ccc(Cl)cc1-c1ccnnc1 [Example 832, 4-(4-chloro-2-pyridazin-4-ylphenoxy)-3-cyano-N-1,3,4-thiadiazol-2-ylbenzenesulfonamide] the IC50 was 420 nM. N#Cc1cc(S(=O)(=O)Nc2ncns2)ccc1Oc1ccc(Cl)cc1-c1ccnc(OC2CCC2)c1 [Example 1025, 4-{4-Chloro-2-[2-(cyclobutyloxy)pyridin-4-yl]phenoxy}-3-cyano-N-1,2,4-thiadiazol-5-ylbenzenesulfonamide] showed an IC50 of 4.1 nM. Cn1nccc1-c1cc(Cl)ccc1Oc1ccc(S(=O)(=O)Nc2ncccn2)cc1Cl [Example 955, 3-chloro-4-[4-chloro-2-(1-methyl-1H-pyrazol-5-yl)phenoxy]-N-pyrimidin-2-ylbenzenesulfonamide] gave an IC50 of 76 nM. Cn1nccc1-c1cc(Cl)ccc1Oc1ccc(S(=O)(=O)Nc2cccnc2)cc1C#N [Example 923, 4-[4-chloro-2-(1-methyl-1H-pyrazol-5-yl)phenoxy]-3-cyano-N-pyridin-3-ylbenzenesulfonamide] was tested, and the IC50 was >10000 nM. Compound Cc1[nH]ncc1-c1cc(Cl)ccc1Oc1ccc(S(=O)(=O)Nc2ncns2)cc1C#N [Example 865, 4-[4-chloro-2-(5-methyl-1H-pyrazol-4-yl)phenoxy]-3-cyano-N-1,2,4-thiadiazol-5-ylbenzenesulfonamide] has an IC50 of 4.4 nM.

Source: patent publication US8541588B2, “Sulfonamide derivatives” (Pfizer Limited, priority 2009, dated 2013)
